Experimental data from paper PMC4210216, “Isolation, Purification and Molecular Mechanism of a Peanut Protein-Derived ACE-Inhibitory Peptide” (PLoS ONE, 2014).
No end group written: not given here.

What was measured:
ACE = system: ACE; set-up: method as in 3 sources, ref 52 = [52]; PMID 19886677; doi:10.1021/jf901787e; 52 Guang C , Phillips RD ( 2009 ) Purification, activity and sequence of angiotensin I converting enzyme inhibitory peptide from alcalase hydrolysate of peanut flour . Journal of agricultural and food ||| ref 43 = [43]; PMID 16680798; doi:10.1002/psc.758; 43 Li GH , Wan JZ , Le GW , Shi YH ( 2006 ) Novel angiotensin I-converting enzyme inhibitory peptides isolated from Alcalase hydrolysate of mung bean protein . Journal of Peptide Science 12 : 509 – 51 ||| ref 45 = [45]; 45 Li GH , Le GW , Shi YH , Shrestha S ( 2004 ) Angiotensin I–converting enzyme inhibitory peptides derived from food proteins and their physiological and pharmacological effects . Nutrition Research; conditions: cited from earlier work; for mode of ACE inhibition: from human serum trypsin hydrolysate
[1] = system: spontaneously hypertensive rats (SHRs); experiment: Long-term antihypertensive activity in SHRs (28 days, SBP); format: in vivo, rat; conditions: male SHR, captopril 40 mg/kg BW
Method: The in vivo tests for antihypertensive activity of peanut peptide was conducted using a previous method, and whole tests were conducted in Chinese Medicine Experiment Center of Hubei College of Traditional Chinese Medicine, authorized by SATCM (State Administration of Traditional Chinese Medicine, China). The male spontaneously hypertensive rats (SHRs) was used for the experimental model while the average weight of each rat was between 210 and 240 g and four rats were numbered as one group for feeding. These rats had free access to food and drink in their cages located in a 25°C room temperature with 12 h of light cycle. After 1 week for adaptation to this environment, the determination of blood pressure was conducted and the comparison of different group was investigated. The SHRs were randomly divided into five groups, named blank control group, low-dose group (100 mg/kg body weight (BW)), intermediate-dose group (500 mg/kg BW), high-dose group (1000 mg/kg BW) and drug control group (40 mg Captopril/kg BW).
Long-term antihypertensive activity: Through the same method of sample preparation, these SHRs were feeded at the same time (9∶00 am–10∶00 am) of each day and the feeding continued for 28 days. […] Each SHR was measured for three times. […]

[2] = target: T1, ACE (protease from rabbit lung) (Oryctolagus cuniculus, UniProt P12822); experiment: ACE inhibiting activity (in vitro tests), HHL substrate, HPLC; format: biochemical; conditions: HEPES pH 8.3, 37°C, 30 min
T1 construct: ACE (protease from rabbit lung); purchased Sigma Chemical Co., St. Louis, MO, USA; host or cells: rabbit lung (tissue-derived)
T1 sequence (P12822 34-1310): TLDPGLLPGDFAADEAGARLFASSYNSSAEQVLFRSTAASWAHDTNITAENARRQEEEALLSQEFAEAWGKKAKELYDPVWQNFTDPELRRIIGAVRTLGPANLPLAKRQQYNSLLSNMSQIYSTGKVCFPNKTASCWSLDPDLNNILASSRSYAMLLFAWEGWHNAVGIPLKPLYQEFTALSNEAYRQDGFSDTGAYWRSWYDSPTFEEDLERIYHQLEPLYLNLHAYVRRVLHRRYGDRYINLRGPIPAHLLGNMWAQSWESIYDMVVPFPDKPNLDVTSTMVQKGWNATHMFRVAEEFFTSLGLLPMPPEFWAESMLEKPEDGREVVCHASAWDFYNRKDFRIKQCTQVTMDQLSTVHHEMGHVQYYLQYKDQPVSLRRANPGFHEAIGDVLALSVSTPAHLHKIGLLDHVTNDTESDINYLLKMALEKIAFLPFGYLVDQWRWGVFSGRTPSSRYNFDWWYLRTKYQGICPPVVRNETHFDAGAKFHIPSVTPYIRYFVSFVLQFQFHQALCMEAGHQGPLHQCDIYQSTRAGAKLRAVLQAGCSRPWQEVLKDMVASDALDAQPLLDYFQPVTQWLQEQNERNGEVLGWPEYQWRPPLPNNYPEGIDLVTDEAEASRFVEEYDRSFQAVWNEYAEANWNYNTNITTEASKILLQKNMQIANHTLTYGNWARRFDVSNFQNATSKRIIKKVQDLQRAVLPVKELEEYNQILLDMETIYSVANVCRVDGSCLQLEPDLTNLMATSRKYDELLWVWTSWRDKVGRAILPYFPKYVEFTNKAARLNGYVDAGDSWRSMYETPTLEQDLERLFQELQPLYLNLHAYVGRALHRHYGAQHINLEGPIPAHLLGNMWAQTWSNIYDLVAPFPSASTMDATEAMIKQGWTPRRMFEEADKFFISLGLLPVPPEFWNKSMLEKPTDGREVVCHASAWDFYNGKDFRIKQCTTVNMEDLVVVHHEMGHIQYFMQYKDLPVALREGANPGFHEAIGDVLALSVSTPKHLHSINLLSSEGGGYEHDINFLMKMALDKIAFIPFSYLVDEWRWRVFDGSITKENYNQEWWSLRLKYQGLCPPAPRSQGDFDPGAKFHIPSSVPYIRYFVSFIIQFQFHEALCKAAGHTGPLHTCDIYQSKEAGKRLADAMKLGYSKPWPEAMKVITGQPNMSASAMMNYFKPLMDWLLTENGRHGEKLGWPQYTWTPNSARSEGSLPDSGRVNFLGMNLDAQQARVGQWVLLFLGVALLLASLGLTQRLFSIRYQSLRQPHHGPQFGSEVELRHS
Description: PPI was purchased from Lanshan Group (Shandong, China). The following commercial enzymes were obtained: Alcalase (protease)-(Novo Industri A/S, Bagsvaerd, Denmark); N120P (protease)-(Kerry Co., Tralee, Ireland) and ACE (protease from rabbit lung)-(Sigma Chemical Co., St. Louis, MO, USA). Hippuryl-histidyl-leucine (HHL) was purchased from Sigma Chemical Co. (St. Louis, MO, USA). Methyl Cyanide (Merck & Co., Inc., Rahway, NJ, USA) and trifluoroacetic acid (TFA) (Fluka Co., Buchs, Switzerland) were purchased and were of chromatographic grade. All the other materials were of analytical grade and were used as received.
Determination of ACE inhibiting activity (in vitro tests)
ACE inhibiting activity was measured using Cushman and Cheung’s method with slight modification, [34]. Specifically, 20 µL of 4-hydroxyethylpiperazine ethane sulfonic acid (HEPEs) buffer solution (pH 8.3) was mixed with 20 µL sample solution in a 0.5 ml centrifuge tube. Then, 15 µL ACE solution was added into this tube and warmed at 37°C for 3 min. […]
The ACE inhibiting activity (%) was expressed in terms of hippuric acid content and was calculated using (1). […]
The dried peanut peptide powder having molecule weight below 1 kDa was first dissolved in water to make a peptide solution with 100 mg/ml concentration. […] The IC50 of each fraction was determined as in vitro tests.

VTPALR
IC50 (ACE; from mung bean protein isolate using alcalase): 82.4 µM

C[C@H](CS)C(=O)N1CCC[C@H]1C(=O)O [captopril]
antihypertensive activity compared with peanut peptide, long term [1]: stronger antihypertensive activity during the long term experiment

Lys-Ala-Phe-Arg [peanut tetrapeptide of Guang and Phillips]
ACE inhibiting activity (ACE; peanut tetrapeptide): 16.9 µg/mL

Leu-Ile-Tyr
mode of ACE inhibition (ACE): non-competitive

YLYEIAR
mode of ACE inhibition (ACE): non-competitive

KLYMRP [Fraction P8, Lys-Leu-Tyr-Met-Arg-Pro]
IC50 ([2]; printed in parentheses beside the mg/mL value, read-out: IC50 (ACE inhibition)): 6.42 µM | inhibition at 100 µg/mL ([2]; peptide concentration 100 µg/ml, HPLC UV 228 nm): 85.8%
